Measurements reported in patent publication US4179433A, “Angiotensin II antagonist peptides containing an alpha-aminooxyacid in the position-1” (Richter Gedeon Vegyeszeti Gyar Rt., priority 1977, dated 1979).

Test system: narcoticized male cats
Experiment: Decrease in arterial blood pressure after intravenous administration, under i.v. infusion of angiotensin II
Type: in vivo, cat
Settings: single dose, angiotensin II infusion 0.5 μg/kg/min, average of 6 experiments
Procedure: The antagonistic activity of the compounds having the formula I was tested on narcoticized male cats. The blood pressure was measured on the cervical artery. The tests were performed by introducing a Hypertension (CIBA) infusion into a lateral femoral vane at a speed of 0.5 μg/kg/min. When the increase in blood pressure was stabilized, the aqueous, physiological or carrier-containing solutions of the test compounds and Saralasin were administered in a single dose, intravenously or subcutaneously, and the decrease in blood pressure was measured. In the Table I the decrease in the arterial blood pressure under the influence of an intravenous administration of the test compounds is illustrated. For comparison Saralasin is used. The data set forth in the Table 1 were obtained by calculating the average of the results of 6 experiments. The margins of error indicate the scatter of the main value.

**Q.** `CNCC(=O)N[C@@H](CCCN=C(N)N)C(=O)N[C@H](C(=O)N[C@@H](Cc1ccc(O)cc1)C(=O)N[C@H](C(=O)N[C@@H](Cc1cnc[nH]1)C(=O)N1CCC[C@H]1C(=O)N[C@@H](C)C(=O)O)C(C)C)C(C)C` [Saralasin] was tested. Which “Decrease in blood pressure (mmHg) after administration of 10 μg/kg i.v. doses” value did it give?
**A.** -41±2.5 mmHg
